Experimental data as given in patent publication US20140148336A1, “METHODS OF CONTROLLING FUNGAL PATHOGENS USING POLYENE FUNGICIDES” (priority 2012, published 2014).
Read-outs that look alike come from different tables or passages of the source.

Legend:
F. virguliforme [1] = assay: Agar diffusion assay, zones of inhibition on F. virguliforme lawn plates (Example 1); type: cell-based, Fusarium virguliforme
Protocol: A PDA plate containing two week old F. virguliforme was flooded with sterile distilled water and scraped with an L-rod to release spores. The spore solution was poured through about four layers of cheese cloth into a 50 mL conical tube. Spores were quantified using a hemacytometer, then diluted to 1×10^5 spores/mL. (1×10^4 spores were spread on plates.) To make F. virguliforme lawn plates, 100 μL of the spore suspension was spread onto commercial PDA plates. Wells were made for the F. virguliforme lawn plates using straw-plungers.
Natamycin stock was diluted in sterile distilled water to concentrations of 500 ppm, 250 ppm, 100 ppm, 50 ppm, 25 ppm, 12.5 ppm, 6.25 ppm, 3.13 ppm, 1.56 ppm, 0.78 ppm, and 0.4 ppm. 100 μL of each dilution was placed in a well on the lawn plates. Control plates consisted of a 1000 ppm plate, a water control, and a 70% ethanol (EtOH) control.
[…] […] Dilutions lower than 12.5 ppm had no effect.

F. virguliforme [2] = type: in vivo, Fusarium virguliforme; settings: 50 mL per cone, 2% low rate infested soil, 18-21 days
Protocol: Sorghum was prepared for inoculation. One to two liters of sorghum seed was put into spawn bags, autoclaved, then inoculated with 30-45 mL of an SDA spore suspension. Bags were left in a cupboard at room temperature, then shaken and mixed every few days for three weeks until ready. Sorghum inoculum was assessed for the number of spores per gram of seed by hemacytometer. The sorghum grew to 4.57×10^5 spores/g.
F. virguliforme spores were enumerated before soil inoculation. First, 25 mL of sterile 0.1% Tween 80 in water was added to sterile 50 mL conical tubes. The tubes where weighed. Then several grains of colonized sorghum from the spawn bag were aseptically added. The tubes were re-weighed to find the exact mass of colonized spores added to the tube. The tubes were shaken at 28-30° C. at approximately 250 rpm for 2-4 hours to release spores from the sorghum seed. Samples were then removed from the tubes and spores were quantified using a hemacytometer. F. virguliforme spores were quantified by making a dilution series from each tube onto PDA plates with 100 ppm chloramphenicol antibiotic.
Soil inoculation began by grounding sorghum grain inoculum in a Waring blender in small batches for 10-20 seconds on the low setting. The ground sorghum was then mixed into Monterey sand fine #60 (Lapis Luster, RMC pacific materials) at either a “2% low rate,” consisting of 2×10^5 spores/cone with 8.9 g/L of sand, or a “5% high rate,” consisting of 5×10^5 spores/cone with 22.5 g/L of sand. The Monterey sand was not pre-sterilized. The ground sorghum inoculum was added on the same day as the experimental set up. In later experiments, ground sorghum inoculum was mixed into sand based on the enumerated spores per gram of inoculum.
Natamycin solution was added in four different concentrations to four different groups of untreated seeds in “2% low rate” infested soil cones. The four different concentrations were 250 ppm, 100 ppm, 50 ppm, and 25 ppm. Fifty milliliters of the natamycin solutions were used per cone.
The assays were planted by first moistening infested sand with water at 150 mL per liter of sand and mixing. The cone-shaped containers were filled 1-2 inches at the bottom with a Sunshine #3 potting mix plug in order to keep the sand in the tube. The containers were then filled to within 1-1.5 inches of the top with moistened and infested sand, taking an average of 120-125 mL to fill each container. The containers were then watered. Two soy seeds were planted into each container. […]
The plants were allowed to grow for 18-21 days. The plants were then gently removed and assessed for root rot symptoms, with a rating of 1=0% infection on taproot and lateral roots, a 2=<25% infection, a 3=25-50% infection, a 4=51-90% infection, and a 5=>90% infection. […]

SDS spores = assay: Drench treatment on soy seedlings for control of SDS in planta (Example 3); type: in vivo, Fusarium virguliforme; settings: 50 mL per container, 1×10^7 spores/container, eighteen days
From the text: The plants were allowed to grow for 18-21 days. The plants were then gently removed and assessed for root rot symptoms, with a rating of 1=0% infection on taproot and lateral roots, a 2=<25% infection, a 3=25-50% infection, a 4=51-90% infection, and a 5=>90% infection. Root vigor was rated such that a rating of 4=healthy taproot and many lateral roots, a 3=fewer lateral roots and some stunting, a 2=fewer or stringy lateral roots and more stunting, 1=thin tap root and only a few lateral roots, and a 0=thin and stunted taproot with 0-3 lateral roots. […] Two experiments were performed. The natamycin solutions were used as a drench treatment with 50 mL of the solution applied to each container. Soy seedlings were transplanted into SDS infested soil, with SDS spores at a rate of 1×10^7 spores/container. The natamycin solutions were applied to the containers the day after transplant. Soy roots were washed after eighteen days.

SDS = assay: Seed treatment for control of SDS in planta, infested soil (Example 5); type: in vivo, Fusarium virguliforme; settings: for Root Rot Average: 25 g inoculum per liter, rating 1-5 (5 = >90% infection), IC 3.3; for Root Vigor Average Infested Soil: rating 0-4 (4 = healthy taproot), IC 2.5
From the text: The plants were allowed to grow for 18-21 days. The plants were then gently removed and assessed for root rot symptoms, with a rating of 1=0% infection on taproot and lateral roots, a 2=<25% infection, a 3=25-50% infection, a 4=51-90% infection, and a 5=>90% infection. Root vigor was rated such that a rating of 4=healthy taproot and many lateral roots, a 3=fewer lateral roots and some stunting, a 2=fewer or stringy lateral roots and more stunting, 1=thin tap root and only a few lateral roots, and a 0=thin and stunted taproot with 0-3 lateral roots.
Using a protocol similar to Example 2, natamycin treated seeds were tested at 50 μg, 25 μg, 10 μg, 5 μg, and 1 μg natamycin per seed. Briefly, seeds were coated with a natamycin slurry and then allowed to air dry. Ten samples of each were planted into infested soil, while five samples of each were planted in uninfested soil to compare germination and potential phytotoxicity.
Inoculum rates in this experiment were 25 g inoculum per liter sand/soil. This is equivalent to 8.5×10^4 spores per cone.
Plants treated with 50 μg/seed of natamycin had the most root rot, while plants treated with 1 μg/seed of natamycin had the least root rot. […] In the tables below, “IC Natamycin 25 ppm” refers to an infested control that was treated with natamcyin as a drench application at 25 ppm two days after planting untreated seed into infested soil.

[3] = drench 25 ppm two days after planting untreated seed into infested soil

C[C@@H]1C/C=C/C=C/C=C/C=C/[C@H](O[C@@H]2O[C@H](C)[C@@H](O)[C@H](N)[C@@H]2O)C[C@@H]2O[C@](O)(C[C@@H](O)C[C@H]3O[C@@H]3/C=C/C(=O)O1)C[C@H](O)[C@H]2C(=O)O [Natamycin, natamycin]
control of F. virguliforme (zones of inhibition), drop off (F. virguliforme [1]; 12.5 ppm, 100 μL per well, after three days): noticeably | control of F. virguliforme (zones of inhibition) (F. virguliforme [1]; 12.5 ppm, after seven days): very limited activity | Fusarium growth around plates (F. virguliforme [1]; 25 ppm and 12.5 ppm plates, one day later (after the three-day reading)): more Fusarium grew | control of F. virguliforme (zones of inhibition) (F. virguliforme [1]; 50 ppm, 100 μL per well, after three days): started to drop off slightly | control of F. virguliforme (zones of inhibition) (F. virguliforme [1]; 50 ppm, after seven days): started falling off | control of F. virguliforme (zones of inhibition) (F. virguliforme [1]; 100 ppm, 100 μL per well, after three days): Substantial control | control of F. virguliforme (zones of inhibition) (F. virguliforme [1]; 250 ppm, 100 μL per well, after three days): Substantial control | control of F. virguliforme (zones of inhibition) (F. virguliforme [1]; 500 ppm, 100 μL per well, after three days): Substantial control | control of F. virguliforme (zones of inhibition) (F. virguliforme [1]; 1000 ppm plate, after three days): almost completely controlled | effect on F. virguliforme (zones of inhibition) (F. virguliforme [1]; dilutions lower than 12.5 ppm): no effect | root rot ratings as compared to the infected control (F. virguliforme [2]; 25 ppm/container): significantly lowering | root vigor as compared to the infected control (F. virguliforme [2]; 25 ppm/container): improving | root rot ratings as compared to the infected control (F. virguliforme [2]; 50 ppm/container): significantly lowering | root vigor as compared to the infected control (F. virguliforme [2]; 50 ppm/container): improving | root rot ratings vs infested control (IC) plants (SDS spores; drench 10 ppm): significantly lower | root vigor ratings vs infested control (IC) plants (SDS spores; drench 10 ppm): higher | root rot ratings vs infested control (IC) plants (SDS spores; drench 25 ppm): significantly lower | root vigor ratings vs infested control (IC) plants (SDS spores; drench 25 ppm): higher | root rot ratings vs infested control (IC) plants (SDS spores; drench 50 ppm): significantly lower | root vigor ratings vs infested control (IC) plants (SDS spores; drench 50 ppm): higher | Root Rot Average (SDS; [3]): 1.8 | Root Vigor Average Infested Soil (SDS; [3]): 2.3 | Root Rot Average (SDS; seed treatment 1 μg/seed, infested soil): 3 | Root Vigor Average Infested Soil (SDS; seed treatment 1 μg/seed): 1.9 | Root Rot Average (SDS; seed treatment 5 μg/seed, infested soil): 3.6 | Root Vigor Average Infested Soil (SDS; seed treatment 5 μg/seed): 2.4 | Root Rot Average (SDS; seed treatment 10 μg/seed, infested soil): 4 | Root Vigor Average Infested Soil (SDS; seed treatment 10 μg/seed): 1.8 | Root Rot Average (SDS; seed treatment 25 μg/seed, infested soil): 4.7 | Root Vigor Average Infested Soil (SDS; seed treatment 25 μg/seed): 1.1 | Root Rot Average (SDS; seed treatment 50 μg/seed, infested soil): 4.6 | Root Vigor Average Infested Soil (SDS; seed treatment 50 μg/seed): 1.6
